In BindingDB's records for doi:10.1111/j.1600-0773.1996.tb00261.x (Uppsala University, 1996):
Where a SMILES comes first, the peptide text is derived from it. [ ]: non-standard residue; d: D form. Met(O2) = CS(=O)(=O)CC[C@H](N)C(=O)O

These compounds were tested against Melanocortin receptor 4 (Homo sapiens, UniProt P32245).
Chain of Melanocortin receptor 4 (P32245 whole entry): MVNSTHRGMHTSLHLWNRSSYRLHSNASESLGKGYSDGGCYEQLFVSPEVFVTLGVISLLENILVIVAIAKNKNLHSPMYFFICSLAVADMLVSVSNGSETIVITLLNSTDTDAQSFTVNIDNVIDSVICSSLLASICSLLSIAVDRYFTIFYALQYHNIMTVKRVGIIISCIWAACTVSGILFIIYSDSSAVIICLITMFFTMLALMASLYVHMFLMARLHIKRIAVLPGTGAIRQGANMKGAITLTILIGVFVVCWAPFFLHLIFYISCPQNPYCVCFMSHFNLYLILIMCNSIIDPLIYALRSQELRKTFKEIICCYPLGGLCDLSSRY
In the case of `CS(=O)(=O)CC[C@H](N)C(=O)N[C@@H](CCC(=O)O)C(=O)N[C@@H](Cc1c[nH]cn1)C(=O)N[C@@H](Cc1ccccc1)C(=O)N[C@H](CCCCN)C(=O)N[C@@H](Cc1ccccc1)C(=O)O` [CAS_50913-82-1] (H-[Met(O2)]EHF[dK]F-OH), the Ki is reported as > 10 µM.
`CSCC[C@H](N)C(=O)N[C@@H](CCC(=O)O)C(=O)N[C@@H](Cc1cnc[nH]1)C(=O)N[C@@H](Cc1ccccc1)C(=O)N[C@@H](CCCNC(=N)N)C(=O)N[C@@H](Cc1c[nH]c2ccccc12)C(=O)NCC(N)=O` [NSC_123787] was tested, and the Ki was > 10 µM.
For H-SMEVRGW-OH [delta MSH], the Ki was > 10 µM.
“H-SYSMEHFRWGKPVGKKRRPVKVYPNGAEDESAEAFPLEF-OH [ACTH]” showed a Ki of 0.693 µM.
With “H-YVMGHFRWDRFGRRNGSSSSGVGGAAQ-OH [Gamma3-MSH]” the Ki was > 10 µM.
